This note sets out measurements from ChEMBL document CHEMBL1151002, “Potent, selective, water-soluble benzodiazepine-based CCKB receptor antagonists that contain lipophilic carboxylate surrogates” (Bioorg Med Chem Lett, 1995).

Series [1] can be described thus: Ratio between CCKB and CCKA receptor binding affinity was measured by displacement of [125I]CCK from guinea pig cortical membranes and rat pancreatic tissues respectively. (In general: Loss of bound radioactivity is the signal in a displacement assay; it reports binding, not function.)
The nature of series [2]: Solubility at a pH 7.4. The class given is physicochemical. The note with it: buffer, read-out: S.
Series [3] is described as follows: Log D is the log of the ratio of concentrations in each phase obtained from partitioning between octanol and 100 mM KH2PO4 buffer at pH 7.4. The series is classed as physicochemical. Particulars: octanol/100 mM KH2PO4 buffer.
Series [4] is described as follows: Compound was evaluated for its solubility at a pH 7.4. The series is classed as ADME. The note with it: buffer.
For series [5], the system named is Rattus norvegicus. Description: Compound was evaluated for its penetration into blood-brain barrier measured by its level in rat brain after an intravenous dose of 3 mg/kg after 30 min. The series is classed as functional, organism-based. On the set-up: dose 3 mg/kg.
In series [6] the test system is Rattus norvegicus. Briefly: Compound was evaluated for its penetration into blood-brain barrier measured by its level in rat brain after an intravenous dose of 3 mg/kg after 10 min. The series is classed as functional, organism-based. On the set-up: dose 3 mg/kg.
The subject of series [7] is Rattus norvegicus. Briefly: Compound was evaluated for its penetration into blood-brain barrier measured by its level in rat brain after an intravenous dose of 3 mg/kg after 1 min. More on the design: dose 3 mg/kg. The class given is functional, organism-based.
The species named for series [8] is Rattus norvegicus. Briefly: In vitro antagonistic activity for single-cell firing in a slice preparation of the rat ventromedial hyphalamic nucleus. The series is classed as functional.
The nature of series [9]: Oral bioavailability in rat. The class given is ADME, organism-based. Particulars: in vivo, read-out: Bioavailabiility.

Converted amounts (≈) assume the structure as drawn.

Usually logD stands for lipophilicity at a set pH, counting ionised and neutral species. One may read the Kb as the equilibrium dissociation constant of an antagonist, usually derived from a functional assay. A high value points to a less potent antagonist.

In the case of `Cc1cccc(NC(=O)N[C@@H]2N=C(C3CCCCC3)c3ccccc3N(C)C2=O)c1`, the Selectivity in [1] stood at 6500. Moreover, in series [2], the solubility is under 0.01 µg/mL. The logD in [3] is over 4.
Take `CN1C(=O)C(NC(=O)Nc2cccc(C(=O)NS(=O)(=O)c3ccccc3)c2)N=C(C2CCCCC2)c2ccccc21` (stereo not given): the Selectivity in series [1] is 19. Further, in series [3], the logD was 1.42.
As to `CC(C)S(=O)(=O)NC(=O)c1cccc(NC(=O)N[C@@H]2N=C(C3CCCCC3)c3ccccc3N(C)C2=O)c1`, the solubility in [2] stood at 1160 µg/mL (≈ 2150 µM).
Consider `CN1C(=O)C(NC(=O)Nc2cccc(C(=O)O)c2)N=C(C2CCCCC2)c2ccccc21` (stereo not given), for which the Selectivity in series [1] was 2. In addition, in series [2], the solubility amounted to 1050 µg/mL (≈ 2420 µM). Besides, the logD in series [3] worked out at 0.89.
As for `Cc1ccccc1S(=O)(=O)NC(=O)c1cccc(NC(=O)N[C@@H]2N=C(C3CCCCC3)c3ccccc3N(C)C2=O)c1`, the solubility in series [2] was found to be 410 µg/mL (≈ 698 µM). In series [3], the logD is 2.
As to `CN1C(=O)C(NC(=O)Nc2cccc(C(=O)NS(C)(=O)=O)c2)N=C(C2CCCCC2)c2ccccc21` (stereo not given), the solubility in series [4] is 1300 µg/mL (≈ 2540 µM). Further, the Level stood at 91 ng/g in the series on Rattus norvegicus [5], 344 ng/g in the series on Rattus norvegicus [6] and 836 ng/g in the series on Rattus norvegicus [7]. In series [3], the logD was 0.34.
As for `CC(C)S(=O)(=O)NC(=O)c1cccc(NC(=O)NC2N=C(C3CCCCC3)c3ccccc3N(C)C2=O)c1` (stereo not given), in series [2], the solubility was 740 µg/mL (≈ 1370 µM). Further, the logD in series [3] is 0.85.
As for `CN1C(=O)[C@H](NC(=O)Nc2cccc(C(=O)NS(=O)(=O)c3ccccc3)c2)N=C(C2CCCCC2)c2ccccc21`, in [1], the Selectivity is over 8000. For the same compound, in series [2], the solubility was determined as 370 µg/mL (≈ 645 µM).
Regarding `CN1C(=O)C(NC(=O)Nc2cccc(S(=O)(=O)NC(=O)c3ccccc3)c2)N=C(C2CCCCC2)c2ccccc21` (stereo not given), the Kb in the series listed under Rattus norvegicus [8] was determined as 1.2 nM. Also, the values for the Level with Rattus norvegicus [5], in the series on Rattus norvegicus [6] and in the series on Rattus norvegicus [7] were 72 ng/g, 120 ng/g and 222 ng/g, respectively. In addition, the solubility in series [2] was found to be 50 µg/mL (≈ 87.2 µM). The bioavailability in [9] was found to be 14%. Also, the logD in series [3] turned out to be 1.78.
With `CC(=O)NS(=O)(=O)c1cccc(NC(=O)NC2N=C(C3CCCCC3)c3ccccc3N(C)C2=O)c1` (stereo not given), the Selectivity in series [1] amounted to 53. Also, the solubility in series [2] came out at 260 µg/mL (≈ 508 µM). Also, the logD in series [3] was found to be 0.72.
